Laboratory results taken from patent publication US8785653B2, “(3-aryl-1H-1,2,4-triazol-5-yl)-linked heterocycle derivatives” (H. Lundbeck A/S, priority 2009, dated 2014).

What was measured:
PDE10A enzyme = target: T1, PDE10A enzyme (Homo sapiens, UniProt Q9Y233); experiment: PDE10A inhibition assay; format: biochemical; conditions: 3H-labelled cAMP substrate 5 nM, SPA beads, one hr at room temperature
T1 construct: made in house; host or cells: E. coli BL21(DE3)
Procedure: Active PDE10A enzyme is prepared in a number of ways for use in PDE assays (Loughney, K. et al. Gene 1999, 234, 109-117; Fujishige, K. et al. Eur J Biochem. 1999, 266, 1118-1127 and Soderling, S. et al. Proc. Natl. Acad. Sci. 1999, 96, 7071-7076). PDE10A can be expressed as full-length proteins or as truncated proteins, as long as they express the catalytic domain. PDE10A can be prepared in different cell types, for example insect cells or E. coli. An example of a method to obtain catalytically active PDE10A is as follows: The catalytic domain of human PDE10A (amino acids 440-779 from the sequence with accession number NP 006652) is amplified from total human brain total RNA by standard RT-PCR and is cloned into the BamH1 and Xho1 sites of the pET28a vector (Novagen). Expression in coil is performed according to standard protocols. Briefly, the expression plasmids are transformed into the BL21(DE3) E. coli strain, and 50 mL cultures inoculated with the cells allowed to grow to an OD600 of 0.4-0.6 before protein expression is induced with 0.5mM IPTG. Following induction, the cells are incubated overnight at room temperature, after which the cells are collected by centrifugation. Cells expressing PDE10A are resuspended in 12 mL (50 mM TRIS-HCl-pH8.0, 1 mM MgCl2 and protease inhibitors). The cells are lysed by sonication, and after all cells are lysed, TritonX100 is added according to Novagen protocols.
A PDE10A assay may for example, be performed as follows: The assay is performed in 60 uL samples containing a fixed amount of the relevant PDE enzyme (sufficient to convert 20-25% of the cyclic nucleotide substrate), a buffer (50 mM HEPES7.6; 10 mM MgCl2; 0.02% Tween20), 0.1 mg/mI BSA, 225 pCi of ^3H-labelled cyclic nucleotide substrate, tritium labeled cAMP to a final concentration of 5 nM and varying amounts of inhibitors. Reactions are initiated by addition of the cyclic nucleotide substrate, and reactions are allowed to proceed for one hr at room temperature before being terminated through mixing with 15 uL 8 mg/mL yttrium silicate SPA beads (Amersham). The beads are allowed to settle for one hr in the dark before the plates are counted in a Wallac 1450 Microbeta counter. The measured signal can be converted to activity relative to an uninhibited control (100%) and IC50 values can be calculated using the XIfit extension to EXCEL.

rats [1] = conditions: cited from earlier work
rats [2] = conditions: cited from earlier work; remark: listed apart in the source
rats [3] = conditions: cited from earlier work; remark: listed apart in the source

T1 sequence (Q9Y233 716-1055): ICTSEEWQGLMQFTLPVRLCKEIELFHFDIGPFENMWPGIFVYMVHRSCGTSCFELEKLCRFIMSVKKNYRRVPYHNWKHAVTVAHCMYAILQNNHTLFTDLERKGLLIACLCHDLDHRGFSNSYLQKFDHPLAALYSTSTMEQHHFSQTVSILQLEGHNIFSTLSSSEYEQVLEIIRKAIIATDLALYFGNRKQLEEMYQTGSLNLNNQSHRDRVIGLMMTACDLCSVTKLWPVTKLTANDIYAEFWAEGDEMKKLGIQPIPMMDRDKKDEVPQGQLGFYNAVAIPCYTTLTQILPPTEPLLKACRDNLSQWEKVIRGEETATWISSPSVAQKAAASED

Row | Compound | IC50 (PDE10A enzyme) [nM] | further results
1 | CCc1ccc(C)n2nc(CCc3nc(-c4ccccc4)nn3C(C)C)nc12 [8-Ethyl-2-[2-(2-isopropyl-5-phenyl-2H-[1,2,4]triazol-3-yl)-ethyl]-5-methyl-[1,2,4]triazolo[1,5-a]pyridine] | 40 | 
2 | CCc1ccc(C)n2nc(CCc3nc(-c4ccccc4)nn3C)nc12 [8-Ethyl-5-methyl-2-[2-(2-methyl-5-phenyl-2H-[1,2,4]triazol-3-yl)-ethyl]-[1,2,4]triazolo[1,5-a]pyridine] | 7.5 | 
3 | CCCn1nc(-c2ccccc2)nc1CCc1nc2c(CC)ccc(C)n2n1 [8-Ethyl-5-methyl-2-[2-(5-phenyl-2-propyl-2H-[1,2,4]triazol-3-yl)-ethyl]-[1,2,4]triazolo[1,5-a]pyridine] | 10 | melting point: 141 to 143 °C
4 | COc1cccn2nc(CCc3nc(-c4ccccc4)nn3C)nc12 [8-Methoxy-2-[2-(2-methyl-5-phenyl-2H-[1,2,4]triazol-3-yl)-ethyl]-[1,2,4]triazolo[1,5-a]pyridine] | 560 | 
5 | COCCn1nc(-c2ccccc2)nc1CCc1nc2c(OC)ccc(C)n2n1 [8-Methoxy-2-{2-[2-(2-methoxy-ethyl)-5-phenyl-2H-[1,2,4]triazol-3-yl]-ethyl}-5-methyl-[1,2,4]triazolo[1,5-a]pyridine] | 62 | 
6 | COc1ccc(C)n2nc(CSc3nc(-c4ccccc4)n[nH]3)nc12 [8-Methoxy-5-methyl-2-(5-phenyl-2H-[1,2,4]triazol-3-ylsulfanylmethyl)-[1,2,4]triazolo[1,5-a]pyridine] | 52 | 
7 | COc1ccc(C)n2nc(CCc3nc(-c4ccccc4)nn3C)nc12 [8-Methoxy-5-methyl-2-[2-(2-methyl-5-phenyl-2H-[1,2,4]triazol-3-yl)-ethyl]-[1,2,4]triazolo[1,5-a]pyridine] | 25 | 
8 | CCCn1nc(-c2ccccc2)nc1CCc1nc2c(OC)ccc(C)n2n1 [8-Methoxy-5-methyl-2-[2-(5-phenyl-2-propyl-2H-[1,2,4]triazol-3-yl)-ethyl]-[1,2,4]triazolo[1,5-a]pyridine] | 37 | 
9 | COc1ccc(C)n2nc(CCc3nc(-c4ccccc4)nn3CC(F)(F)F)nc12 [8-Methoxy-5-methyl-2-{2-[5-phenyl-2-(2,2,2-trifluoro-ethyl)-2H-[1,2,4]triazol-3-yl]-ethyl}-[1,2,4]triazolo[1,5-a]pyridine] | 180 | 
10 | Cc1cccn2nc(CCc3nc(-c4ccccc4)nn3C)nc12 [8-Methyl-2-[2-(2-methyl-5-phenyl-2H-[1,2,4]triazol-3-yl)-ethyl]-[1,2,4]triazolo[1,5-a]pyridine] | 170 | 
11 | COc1ccc(Cc2nccc3cc(OC)c(OC)cc23)cc1OC [Papaverine, papaverine] |  | catalepsy on its own (rats [1]; papaverine alone): did not cause catalepsy; cataleptic effect of the D2 receptor antagonist haloperidol (rats [1]; together with haloperidol): potentiated; hyperactivity induced by PCP (rats [2]): reduced hyperactivity; reduction of amphetamine induced hyperactivity (rats [3]): insignificant
12 | CCOC(=O)Cn1nc(-c2ccccc2)nc1CCc1nc2c(OC)ccc(C)n2n1 [{5-[2-(8-Methoxy-5-methyl-[1,2,4]triazolo[1,5-a]pyridin-2-yl)-ethyl]-3-phenyl-[1,2,4]triazol-1-yl}-acetic acid ethyl ester] | 81 | 
